Results taken from US6933123B2, “Peptides from the E2, E6, and E7 proteins of human papilloma viruses 16 and 18 for detecting and/or diagnosing cervical and other human papillomavirus associated cancers” (priority 2001, dated 2005).
No end group written: not given here.

Test system: antibodies formed against human papillomavirus (HPV)
Experiment: ELISA immunoassay of titer-plate-bound HPV peptides with subject serum (antibody-peptide complex, HRP anti-human IgG, TMB)
Type: binding
Conditions: serum of Subject 6 (low pre-test probability, no HPV DNA detected), diluted 1:25; absorbance read at 450 nm
Description: REACTI-BIND™ Maleic Anhydride Activated Polystyrene Plates (Pierce, Rockford, Ill.) may be employed. Each amino acid sequence may be diluted to 12.5 μg/mL with coating buffer (100 mM sodium bicarbonate buffer, pH 9.4). To each titer well, 100 μL (1.25 μg) of the diluted sequence solution may be added. The plate may then be incubated for one hour at room temperature with shaking. The plate may be emptied and residual liquid tapped onto a clean paper towel. Each well may be washed with 100 μL wash buffer (0.1% bovine serum albumin and 0.05% Tween-20 in phosphate buffered saline, pH 7.0). This may be repeated for a total of three times. Each time, the plate may be emptied and residual liquid tapped onto a clean paper towel. To each well, 200 μL of blocking solution (3% bovine serum albumin and 0.05% Tween-20 in phosphate buffered saline, pH 7.0) may be added.
Blocking solution may be left in each well for one minute. The titer plate may then be emptied by inversion. Filling with blocking solution and emptying may be done three times. Finished titer plates may be dried at room temperature and stored at 4° C. for up to four months.
For negative samples, serum may be obtained from virgin females, ages 14 and 15, and from adult sexually active, monogamous women, more than 25 years old, with histories of no Pap smear abnormalities and DNA verification of HPV absence. Positive samples consisted of serum obtained from females diagnosed with cervical cancer or precancerous disease. Subject and control sera may be diluted 1:25 with wash buffer (0.1% bovine serum albumin and […] in phosphate buffered saline, pH 7.0). To each well, 100 μL of diluted serum may be added, and the assay plate incubated for one hour at room temperature with shaking. Each well may then be rinsed three times, each with 200 μL wash buffer. Each rinse may be for five minutes. […]
The bottom of the titer plate may be cleaned with 70% ethanol, and the titer plate loaded into the spectrophotometer. Absorbance may be read at 450 nm, with […] of TMB solution plus […] of 2N HCl used as a blank control.

Substance	absorbance values
KHGYTVQFDGICNTMHY [SEQ ID NO 2, 17 residues making up amino acids 112 through 131 of the HPV 16 E2 oncoprotein]	0.32
Lys Gln Leu Gln His Thr Pro Ser Pro Tyr Ser Ser Thr Val Ser Val Gly Thr Ala Lys Thr Tyr [SEQ ID NO 1]	0.44
HAGGQVILCPTSVFSSNEVSSPE [SEQ ID NO 3, 23 residues making up amino acids 187 through 209 of the HPV 16 E2 oncoprotein]	0.49
